{
  "source": "paper PMC2990587",
  "about": "“Central nervous system penetration and enhancement of temozolomide activity in childhood medulloblastoma models by poly(ADP-ribose) polymerase inhibitor AG-014699” (British Journal of Cancer, 2010)",
  "key": {"[1]": {"assay": "Toxicity (body weight loss) in tumour-bearing mice", "assay_type": "in vivo, mouse", "description": "CD-1 nude mice bearing palpable, established subcutaneous D425Med, D283Med and D384Med xenografts were treated with normal saline (control animals), temozolomide (68 mg kg^−1 per os (p.o.)) or AG-014699 (1 mg kg^−1 i.p.) alone or in combination, daily for 5 days (five mice per group). For drug combinations, AG-014699 was administered immediately after administering temozolomide. Tumour volumes, determined from two-dimensional calliper measurements and the equation a^2 × b/2 (where a is the […] of the tumour), were monitored for the experimental period (up to 100 days), and are presented for each group of mice as median relative tumour volume (RTV) values. Relative tumour volume 1 is the tumour volume on the initial day of treatment (day 0), and RTV4 is the tumour volume four times that on the initial day of treatment. Tumour growth delay (TGD) is defined as the time to RTV4 in drug-treated mice compared with the time to RTV4 in control (vehicle alone) mice. Median tumour volume is shown, rather than the mean, as this is generally accepted as the most statistically reliable representation of the average growth rate of tumours in a small group of mice, if a normal distribution of tumour volumes cannot be assumed. Tumour growth delay was calculated as: median time to RTV4 in treated group−median time to RTV4 in control group. Percentage enhancement was calculated as 100 × (TGD TMZ+AG-014699/TGD TMZ alone)−100 ([Calabrese et al, 2004])."}, "[2]": {"tested_on": "D425Med cells", "assay": "XTT growth inhibition, D425Med", "assay_type": "cell-based, human", "description": "Cell growth inhibition was estimated in exponentially growing D425Med, D283Med and D384Med cells in 96-well plates. Seeding densities of 1 × 10^3, 3 × 10^3 and 3 × 10^3 cells, respectively, ensured exponential growth for the duration of the experiment. At 24 h (D384Med) or 48 h (D283Med and D425Med) after seeding, cells were exposed to varying concentrations of temozolomide, as described in the Results, in the presence or absence of 0.4 μM AG-014699, a concentration previously shown to enhance temozolomide cytotoxicity in adult tumour cell lines ([Thomas et al, 2007]). After 3 days (D425Med and D384Med) or 5 days (D283Med) of culture (equivalent to approximately three cell divisions), the cell viability was quantified using an XTT cell proliferation kit assay (Roche, Mannheim, Germany), according to the manufacturer's instructions. Cell growth was expressed as a percentage in relation to DMSO or 0.4 μM AG-014699-alone controls. The concentration of temozolomide, alone or in combination with AG-014699, that inhibited growth by 50% (GI50) was calculated from computer-generated curves (GraphPad Software, San Diego, CA, USA). The potentiation factor50 (PF50) is defined as the ratio of […]. All data were from at least three independent experiments."}, "[3]": {"target": "PARP-1 (Homo sapiens, UniProt P09874)", "sequence (P09874 whole entry)": "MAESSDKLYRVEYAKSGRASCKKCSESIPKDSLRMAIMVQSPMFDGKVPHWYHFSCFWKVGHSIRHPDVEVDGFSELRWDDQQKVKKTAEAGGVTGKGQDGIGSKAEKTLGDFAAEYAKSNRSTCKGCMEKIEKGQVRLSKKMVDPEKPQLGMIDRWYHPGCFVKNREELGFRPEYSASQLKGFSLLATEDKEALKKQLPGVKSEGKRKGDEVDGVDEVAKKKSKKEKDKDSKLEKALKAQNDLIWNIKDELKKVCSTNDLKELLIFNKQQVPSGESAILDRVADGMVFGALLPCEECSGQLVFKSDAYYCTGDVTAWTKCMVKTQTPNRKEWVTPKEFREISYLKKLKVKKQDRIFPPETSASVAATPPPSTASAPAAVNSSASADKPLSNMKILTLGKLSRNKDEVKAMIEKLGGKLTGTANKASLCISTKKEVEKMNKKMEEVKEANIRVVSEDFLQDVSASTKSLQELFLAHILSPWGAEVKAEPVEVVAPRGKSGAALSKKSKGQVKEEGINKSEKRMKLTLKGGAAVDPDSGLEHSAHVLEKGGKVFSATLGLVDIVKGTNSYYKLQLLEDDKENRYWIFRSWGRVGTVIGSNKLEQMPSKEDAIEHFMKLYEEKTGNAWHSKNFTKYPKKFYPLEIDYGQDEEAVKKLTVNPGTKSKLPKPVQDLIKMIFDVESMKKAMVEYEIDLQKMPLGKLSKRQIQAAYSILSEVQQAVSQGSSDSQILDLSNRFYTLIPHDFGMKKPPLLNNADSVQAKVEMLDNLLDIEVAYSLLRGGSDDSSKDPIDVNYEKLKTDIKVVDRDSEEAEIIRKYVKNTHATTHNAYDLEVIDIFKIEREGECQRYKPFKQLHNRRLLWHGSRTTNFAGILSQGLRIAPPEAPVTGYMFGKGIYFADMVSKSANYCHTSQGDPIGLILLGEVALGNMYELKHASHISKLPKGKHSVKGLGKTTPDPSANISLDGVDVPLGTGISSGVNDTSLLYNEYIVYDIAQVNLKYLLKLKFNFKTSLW", "assay": "PARP activity in D283Med xenograft homogenates after AG-014699 dosing", "assay_type": "in vivo, mouse", "description": "One or four daily doses of PARP inhibitor AG-014699 (1 mg kg^−1 intraperitoneally (i.p.)) were given to CD-1 nude mice bearing established D283Med xenografts. At 0.5, 2, 6 and 24 h after the initial or fourth daily dose of AG-014699, three animals per time point were bled by cardiac puncture under general anaesthesia, and then killed. Plasma was separated from the blood samples using standard methods and stored at −80°C. The brains and tumours were removed, snap frozen in liquid nitrogen and stored at −80°C before analysis. Blood, tumour and brain tissue were removed from three untreated control animals and processed in the same way.\nPARP activity was determined in homogenates of subcutaneous D283Med xenografts and brain tissue (see above). Maximally stimulated PARP activity was measured in replicate samples (n⩾3) of a 1 : 1000 dilution of the homogenate as described for permeabilised D283Med cells (see above). Data were calculated as pmol PAR per mg protein by reference to the PAR standard curve and protein content of the sample and expressed as a percentage of the corresponding tissue from the saline-treated control animals. The mean PARP activity in xenograft and brain samples taken at each time point was expressed as a percentage of the mean PARP activity of control xenografts from untreated mice (n=3)."}},
  "note": "Entries after “also recorded” stand apart in the source; their conditions may differ.",
  "data": [
    {"smiles": "CNCc1ccc(-c2[nH]c3cc(F)cc4c3c2CCNC4=O)cc1", "note": "[AG-014699]", "values": [
      {"measurement": "Toxicity of AG-014699 alone", "setting": "[1]; 1 mg kg−1 i.p. daily five times", "result": "not toxic; also recorded: did not cause any marked toxicity"},
      {"measurement": "Body weight loss", "setting": "[1]; daily x5, TMZ 68 mg kg−1 p.o., AG-014699 1 mg kg−1 i.p.", "result": "1±1", "unit": "%"},
      {"measurement": "Sensitisation to temozolomide by AG-014699", "setting": "[2]; D425Med (MGMT-deficient), 0.4 μM AG-014699", "result": "not sensitised; also recorded: no sensitisation; also recorded: did not enhance temozolomide sensitivity"},
      {"measurement": "Growth inhibition by AG-014699 alone", "setting": "[2]; D425Med, 0.4 μM, data not shown", "result": "not growth inhibitory"},
      {"measurement": "PF50", "setting": "[2]; D425Med, potentiation of temozolomide by 0.4 μM AG-014699", "result": "0.7±0.4"},
      {"measurement": "Reduction of PARP activity in tumour (nadir)", "setting": "[3]; D283Med xenograft, 6 h post-injection, similar after first and fourth dose, 1 mg kg−1 i.p.", "result": "around 75%"},
      {"measurement": "Reduction of PARP activity in xenograft tissue", "setting": "[3]; abstract, time not stated", "result": "≥ 75", "unit": "%"}
    ]}
  ]
}
